# From PMC10464103, “Antibacterial peptide PMAP-37(F34-R), expressed in Pichia pastoris, is effective against pathogenic bacteria and preserves plums” (Microbial Cell Factories, 2023)
# Peptide text beside a SMILES is read from it.
# What was measured:
# [1] = system: S. aureus, Listeria monocytogenes, B. subtilis, Salmonella typhimurium, E. coli O157, E. coli; experiment: Inhibition zone method; assay type: cell-based; settings: inhibition zone in LB agar; three Gram-positive and three Gram-negative bacteria; positive control 50 µg/mL gentamicin
# Method: (§1) The inhibition zone method was performed as described in a previous study with slight modifications. Fifty microliters of the bacterial solution was mixed with 15 mL lysogeny broth, and the inhibition zone of the six bacteria was determined by drilling after coagulation. The stability of PMAP-37(F34-R) against S. aureus was determined using the inhibition zone method. 4 µg/mL PMAP-37(F-34R) was dissolved in buffers with different pH (2, 4, 6, 8, and 10), different proteases (papain, pepsin, trypsin, and protease K), and different temperatures (4, 25, 37, 65, and 90 °C). The stability profiles under various pH, proteases, and temperatures were determined. Untreated buffer was used as a negative control.
# S. aureus [2] = experiment: Stability at different temperatures and pH, read out by inhibition zone; assay type: physicochemical; settings: 4 µg/mL peptide, antibacterial activity against S. aureus by inhibition zone
# Method: as §1
# S. aureus [3] = experiment: Total nucleotide leakage; assay type: cell-based; settings: within 30 min after treatment; 37 °C, PBS; OD 260 nm of supernatant
# Method: The total nucleotide leakage experiment was performed according to a previously reported method with slight modifications. S. aureus was collected, washed twice, and resuspended in PBS to an OD600 of 0.8. Antimicrobial peptides were added and incubated at 37 °C for various durations. The bacterial solution was centrifuged to remove S. aureus. The OD of the supernatant was recorded at a wavelength of 260 nm.
# S. aureus [4] = experiment: Membrane permeability, PI staining; assay type: cell-based; settings: 37 °C, 30 min with peptide, then PI; fluorescence microscope
# Method: The permeability assay was performed as previously described with slight modifications. S. aureus was until the OD600 reached 0.3–0.6, washed three times with PBS, and resuspended to 1 × 10^8 CFU/mL. The bacteria (100 µL) were mixed with 50 µL of antimicrobial peptide and incubated at 37 °C for 30 min, with PBS as a control. The supernatant was centrifuged and discarded, the bacteria were resuspended with PI-diluted dye, and stained at 37 °C for 30 min. After washing three times with PBS, the unbound stain was removed, and 10 µL of PBS was taken; an appropriate amount of […] was added onto the slide, the cover glass was observed by fluorescence microscope.
# [5] = set-up: method as in PMID 31858653; settings: compared with antibiotic; cited from earlier work
structure (smiles),measurement,setting,value
CC[C@H](C)[C@H](NC(=O)[C@H](CCCNC(=N)N)NC(=O)[C@H](CCC(=O)O)NC(=O)[C@@H](NC(=O)[C@H](CCCCN)NC(=O)[C@H](CCC(=O)O)NC(=O)CNC(=O)[C@H](CC(C)C)NC(=O)[C@H](CCCNC(=N)N)NC(=O)[C@H](CCCNC(=N)N)NC(=O)CNC(=O)[C@H](CCCNC(=N)N)NC(=O)[C@H](CC(=O)O)NC(=O)[C@H](CO)NC(=O)[C@H](CC(C)C)NC(=O)[C@H](Cc1ccccc1)NC(=O)[C@H](CC(=O)O)NC(=O)[C@H](CCCNC(=N)N)NC(=O)[C@H](CC(C)C)NC(=O)[C@H](CCCNC(=N)N)NC(=O)[C@H](CO)NC(=O)[C@H](CC(C)C)NC(=O)[C@H](CC(C)C)NC(=O)CN)[C@@H](C)CC)C(=O)NCC(=O)N[C@@H](CCC(N)=O)C(=O)N[C@@H](CCCCN)C(=O)N[C@H](C(=O)N[C@@H](CCCCN)C(=O)N[C@@H](CC(=O)O)C(=O)N[C@@H](CC(C)C)C(=O)N[C@@H](CO)C(=O)N[C@@H](CCC(=O)O)C(=O)N[C@@H](CCCNC(=N)N)C(=O)N[C@@H](Cc1ccccc1)C(=O)N[C@@H](CCC(N)=O)C(=O)N[C@@H](CO)C(=O)O)[C@@H](C)CC [PMAP-37(F34-R)] (H-GLLSRLRDFLSDRGRRLGEKIERIGQKIKDLSERFQS-OH; N-terminus and C-terminus assumed),inhibitory effect (inhibition zone),[1],inhibited all six bacteria tested
same,stability at other temperatures,"S. aureus [2]; 4, 25, 37, 65 °C",maintained good stability
same,stability at high temperature,S. aureus [2]; 90 °C,partially affected
same,stability at other pH,"S. aureus [2]; pH 2, 4, 6, 8 buffers",maintained good stability
same,stability in strong base,S. aureus [2]; pH = 10 buffer,partially affected
same,nucleotide leakage,S. aureus [3],increased significantly
same,PI staining (membrane integrity),S. aureus [4],extensive cell death
same,efficacy in animal experiments,[5],comparable to that of ceftifol sodium
